Data on 8 molecules can be found in patent US7491794B2, “Macrocyclic compounds as inhibitors of viral replication” (Intermune, Inc., priority 2003, dated 2009).

One experiment deals with T1, NS3-NS4 protease (Hepatitis C virus genotype 1a, UniProt P27958).
T1 construct: Recombinant E. coli or Baculovirus full-length NS3 was diluted to 3.33 μM with assay buffer; made in house; host or cells: E. coli or baculovirus (BV) system
In words: NS3-NS4 protease assay / NS3 inhibition assay, Section C. It is filed as biochemical. The conditions noted are these: read-out: NS3-NS4 IC50. The procedure: NS3 complex formation with NS4A-2.
Recombinant E. coli or Baculovirus full-length NS3 was diluted to 3.33 μM with assay buffer and transfered material to an eppendorf tube and place in water bath in 4° C. refrigerator. The appropriate amount of NS4A-2 to 8.3 mM in assay buffer was added to equal the volume of NS3 in step 2.1.1 (conversion factor −3.8 mg/272 μL assay buffer). The material was transferred to an eppendorf tube and place in water bath in 4° C. refrigerator.
After equilibration to 4° C., equal volumes of NS3 and NS4A-2 solutions were combined in an eppendorf tube, mix gently with a manual pipettor, and incubate mixture for 15 minutes in the 4° C. water bath. Final concentrations in the mixture are […] NS3, 4.15 mM NS4A-2 (2485-fold molar excess NS4A-2).
After 15 minutes at 4° C., the NS3/NS4A-2 eppendorf tube was removed and place it in a room temperature water bath for 10 minutes. NS3/NS4A-2 was alliquoted at appropriate volumes and store at −80° C. (E. coli NS3 run at 2 nM in assay, aliquot at 25 μL. BV NS3 run at 3 nM in assay, aliquot at 30 μL).
Step 2.2.5. Sample compounds were dissolved to 10 mM in DMSO then diluted to 2.5 mM (1:4) in DMSO.
Step 2.2.6. The E. coli. NS3/NS4A-2 was diluted to 4 nM NS3 (1:417.5 of […] stock−18 μL 1.67 μM stock+7497 μL assay buffer). The BV NS3/NS4A-2 was diluted to 6 nM NS3 (1:278.3 of 1.67 μM stock−24 μL 1.67 μM stock+6655 μL assay buffer).
Step 2.2.7. Using the manual multichannel pipettor, and being careful not to introduce bubbles into the plate, 50 μL assay buffer were added to wells A01-H01 of a black Costar 96-well polypropylene storage plate.
Step 2.2.8. Using the manual multichannel pipettor, and being careful not to introduce bubbles into the plate, 50 μL of diluted NS3/NS4A-2 from step 2.2.6 were added to wells A02-H12 of plate in step 2.2.7.
Step 2.2.9. Using the manual multichannel pipettor, and being careful not to introduce bubbles into the plate, 25 μL of the wells in drug dilution plate in step 2.2.5 were transferred to corresponding wells in assay plate in step 2.2.8. The tips on multichannel pipettor were changed for each row of compounds transferred.
Step 2.2.10. Using the manual multichannel pipettor, and being careful not to introduce bubbles into the plate, the contents of the wells from the assay plate in step 2.2.9 were mixed by aspirating and dispensing 35 μL of the 75 μL in each well five times. The tips on the multichannel pipettor were changed for each row of wells mixed.
Step 2.2.11. The plate was covered with a polystyrene plate lid, and the plate from step 2.2.10 containing NS3 protease and sample compounds was pre-incubated 10 minutes at room temperature.
While the plate from step 2.2.11 was pre-incubating, the RETS1 substrate was diluted in a 15 mL polypropylene centrifuge tube. The RETS1 substrate was diluted to 8 μM (1:80.75 of 646 μM stock−65 μL 646 μM stock+5184 μL assay buffer).
After the plate in step 2.2.11 was done pre-incubating, and using the manual multichannel, 25 μL of substrate were added to all wells on the plate. The contents of the wells of plate were quickly mixed, as in step 2.2.10, but mixing 65 μL of the 100 μL in the wells.
The plate was read in kinetic mode on the Molecular Devices SpectraMax Gemini XS plate reader. Reader settings: Read time: 30 minutes, Interval: 36 seconds, Reads: 51, Excitation λ: 335 nm, Emission λ: 495 nm, cutoff: 475 nm, Automix: off, Calibrate: once, PMT: high, Reads/well: 6, Vmax pts: 21 or 28/51 depending on length of linearity of reaction.
IC50s were determined using a four parameter curve fit equation, and converted to Ki's using the following Km's:
where Ki=IC50/(1+[S]/Km))

The subject of experiment [1] is HCV sub-genomic replicon, GS4.3. Briefly: Quantitation by ELISA of NPTII in the HCV sub-genomic replicon, GS4.3, Section C. It is filed as cell-based. The settings on record: Hepatitis C virus; GS4.3 cells, 72 h incubation; read-out: EC50. The text has this:
Quantitation by ELISA of the selectable marker protein, Neomycin phosphotransferase II (NPTII) in the HCV Sub-Genomic Replicon, GS4.3
The HCV sub-genomic replicon (1377/NS3-3′, accession No. AJ242652), stably maintained in HuH-7 hepatoma cells, was created by Lohmann et al. Science 285: 110-113 (1999). The replicon-containing cell culture, designated GS4.3, was obtained from Dr. Christoph Seeger of the Institute for Cancer Research, Fox Chase Cancer Center, Philadelphia, Pa.
GS4.3 cells were maintained at 37° C., 5% CO2, in DMEM (Gibco 11965-092) supplemented with L-glutamine 200 mM (100×) (Gibco25030-081), non-essential amino acids (NEAA)(Biowhittaker 13-114E), heat-inactivated (HI) Fetal Bovine Serum(FBS)(Hyclone SH3007.03) and 750 μg/ml geneticin (G418)(Gibco 10131-035). Cells were sub-divided 1:3 or 4 every 2-3 days.
24 h prior to the assay, GS4.3 cells were collected, counted, and plated in 96-well plates (Costar 3585) at 7500 cells/well in 100 μl standard maintenance medium (above) and incubated in the conditions above. To initiate the assay, culture medium was removed, cells were washed once with PBS (Gibco 10010-023) and 90 μl Assay Medium (DMEM, L-glutamine, NEAA, 10% HI FBS, no G418) was added. Inhibitors were made as a 10× stock in Assay Medium, (3-fold dilutions from 10 μM to […] final concentration, final DMSO concentration 1%), 10 μl were added to duplicate wells, plates were rocked to mix, and incubated as above for 72 h.
An NPTII Elisa kit was obtained from AGDIA, Inc. (Compound direct ELISA test system for Neomycin Phosphotransferase II, PSP 73000/4800). Manufacturer's instructions were followed, with some modifications. 10×PEB-1 lysis buffer was made up to include 500 μM PMSF (Sigma P7626, 50 mM stock in isopropanol). After 72 h incubation, cells were washed once with PBS and 150 μl PEB-1 with PMSF was added per well. Plates were agitated vigorously for 15 minutes, room temperature, then frozen at −70° C. Plates were thawed, lysates were mixed thoroughly, and 100 μl were applied to an NPTII Elisa plate. A standard curve was made. Lysate from DMSO-treated control cells was pooled, serially diluted with PEB-1 with PMSF, and applied to duplicate wells of the ELISA plate, in a range of initial lysate amount of 150u1-2.5 ul. In addition, 100 μl buffer alone was applied in duplicate as a blank. Plates were sealed and gently agitated at room temperature for 2 h. Following capture incubation, the plates were washed 5×300 μl with PBS-T (0.5% Tween-20, PBS-T was supplied in the ELISA kit). For detection, a 1× dilution of enzyme conjugate diluent MRS-2 (5×) was made in PBS-T, into which 1:100 dilutions of enzyme conjugates A and B were added, as per instructions. Plates were resealed, and incubated with agitation, covered, room temperature, for 2 h. The washing was then repeated and 100 μl of room temperature TMB substrate was added. After approximately 30 minutes incubation (room temperature, agitation, covered), the reaction was stopped with 50 μl 3M sulfuric acid. Plates were read at 450 nm on a Molecular Devices Versamax plate reader.
Inhibitor effect was expressed as a percentage of DMSO-treated control signal, and inhibition curves were calculated using a 4-parameter equation: y=A+((B−A)/(1+((C/x)^D))), where C is half-maximal activity or EC50.
For orientation: ELISA stands for enzyme-linked immunosorbent assay.

T1 sequence (P27958 1027-1657): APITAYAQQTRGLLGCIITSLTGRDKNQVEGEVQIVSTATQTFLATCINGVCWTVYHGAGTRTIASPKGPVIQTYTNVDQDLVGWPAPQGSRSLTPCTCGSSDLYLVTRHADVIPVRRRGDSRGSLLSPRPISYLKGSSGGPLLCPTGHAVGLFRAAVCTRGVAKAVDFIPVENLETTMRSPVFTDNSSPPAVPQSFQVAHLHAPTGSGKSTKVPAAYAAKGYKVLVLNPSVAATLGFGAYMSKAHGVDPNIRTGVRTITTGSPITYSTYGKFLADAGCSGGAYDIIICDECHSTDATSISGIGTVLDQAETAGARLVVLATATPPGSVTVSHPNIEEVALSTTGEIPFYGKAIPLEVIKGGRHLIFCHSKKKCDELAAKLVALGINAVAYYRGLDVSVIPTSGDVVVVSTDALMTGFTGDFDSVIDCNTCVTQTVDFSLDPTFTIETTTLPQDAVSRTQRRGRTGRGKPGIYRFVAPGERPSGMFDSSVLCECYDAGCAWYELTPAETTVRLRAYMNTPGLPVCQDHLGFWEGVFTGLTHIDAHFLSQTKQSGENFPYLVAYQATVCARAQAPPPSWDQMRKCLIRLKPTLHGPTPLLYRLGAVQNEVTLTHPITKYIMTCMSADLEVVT

Regarding `CC(C)(C)OC(=O)N[C@H]1CCCCC/C=C\[C@@H]2C[C@@]2(C(=O)NS(=O)(=O)Nc2ccc(Cl)cc2)NC(=O)[C@@H]2C[C@@H](OC(=O)N3Cc4ccccc4C3)CN2C1=O` [Compound 128, (1S,4R,6S,14S,18R)-1,3-Dihydro-isoindole-2-carboxylic acid 14-tert-butoxycarbonylamino-4-(4-chlorophenylaminosulfonyl-aminocarbonyl)-2,15-dioxo-3,16-diaza-tricyclo[14.3.0.0^4,6]nonadec-7-en-18-yl ester], the 50% inhibitory concentration (IC50) on NS3-NS4 protease is less than 100 nM. In addition, in experiment [1], the concentration for a half-maximal effect (EC50) was less than 100 nM. For the molecule `Cc1ccc(NS(=O)(=O)NC(=O)[C@@]23C[C@H]2/C=C\CCCCC[C@H](NC(=O)OC(C)(C)C)C(=O)N2C[C@H](OC(=O)N4Cc5ccccc5C4)C[C@H]2C(=O)N3)cc1` [Compound 130, (1S,4R,6S,14S,18R)-1,3-Dihydro-isoindole-2-carboxylic acid 14-tert-butoxycarbonylamino-4-(4-methylphenylaminosulfonyl-aminocarbonyl)-2,15-dioxo-3,16-diaza-tricyclo[14.3.0.0^4,6]nonadec-7-en-18-yl ester], the IC50 on NS3-NS4 protease is less than 100 nM. Also, the EC50 in experiment [1] is less than 100 nM. As for `CC(C)(C)OC(=O)N[C@H]1CCCCC/C=C\[C@@H]2C[C@@]2(C(=O)NS(=O)(=O)NC2CCC2)NC(=O)[C@@H]2C[C@@H](OC(=O)N3Cc4ccccc4C3)CN2C1=O` [Compound 133, (1S,4R,6S,14S,18R)-1,3-Dihydro-isoindole-2-carboxylic acid 14-tert-butoxycarbonylamino-4-(cyclobutylaminosulfonyl-aminocarbonyl)-2,15-dioxo-3,16-diaza-tricyclo[14.3.0.0^4,6]nonadec-7-en-18-yl ester], the IC50 on NS3-NS4 protease was less than 100 nM. In addition, the half-maximal effective concentration (EC50) in experiment [1] was less than 100 nM. For `CN(C)S(=O)(=O)NC(=O)[C@@]12C[C@H]1/C=C\CCCCC[C@H](NC(=O)OC(C)(C)C)C(=O)N1C[C@H](OC(=O)N3CCc4ccccc4C3CN3CCCCC3)C[C@H]1C(=O)N2` (stereo partly drawn) [Compound 107, (1S,4R,6S,14S,18R)-1-Piperidin-1-ylmethyl-3,4-dihydro-1H-isoquinoline-2-carboxylic acid 14-tert-butoxycarbonylamino-2,15-dioxo-4-(N,N-dimethyl-sulfonylaminocarbonyl)-3,16-diaza-tricyclo[14.3.0.0^4,6]nonadec-7-en-18-yl ester], the IC50 on NS3-NS4 protease is less than 100 nM. Besides, the EC50 in experiment [1] is less than 100 nM. As to `CC(C)(C)OC(=O)N[C@H]1CCCCC/C=C\[C@@H]2C[C@@]2(C(=O)NS(=O)(=O)NC2(C#N)CC2)NC(=O)[C@@H]2C[C@@H](OC(=O)N3Cc4ccccc4C3)CN2C1=O` [Compound 123, (1S,4R,6S,14S,18R)-1,3-Dihydro-isoindole-2-carboxylic acid 14-tert-butoxycarbonylamino-4-(N-(1-cyanocyclopropyl)aminosulfonyl-aminocarbonyl)-2,15-dioxo-3,16-diaza-tricyclo[14.3.0.0^4,6]nonadec-7-en-18-yl ester], the concentration for half-maximal inhibition (IC50) at NS3-NS4 protease was less than 100 nM. Same read-out and setting: to `CC(C)(C)OC(=O)N[C@H]1CCCCC/C=C\[C@@H]2C[C@@]2(C(=O)NS(=O)(=O)N2CCCC2)NC(=O)C2C[C@@H](OC(=O)NC(CN3CCOCC3)c3ccccc3)CN2C1=O` (stereo partly drawn) [Compound 112, (1S,4R,6S,14S,18R)-(2-Morpholin-4-yl-1-phenyl-ethyl)-carbamic acid 14-tert-butoxycarbonylamino-2,15-dioxo-4-(pyrrolidine-1-sulfonylaminocarbonyl)-3,16-diaza-tricyclo[14.3.0.0^4,6]nonadec-7-en-18-yl ester] belongs less than 100 nM. The same measure, in the same setting: the result for `CC(C)(C)OC(=O)N[C@H]1CCCCC/C=C\[C@@H]2C[C@@]2(C(=O)NS(=O)(=O)N2CCOCC2)NC(=O)[C@@H]2C[C@@H](OC(=O)N3CCc4ccccc4C3CN3CCCCC3)CN2C1=O` (stereo partly drawn) [Compound 110, (1S,4R,6S,14S,18R)-1-Piperidin-1-ylmethyl-3,4-dihydro-1H-isoquinoline-2-carboxylic acid 14-tert-butoxycarbonylamino-2,15-dioxo-4-(morpholino-sulfonylaminocarbonyl)-3,16-diaza-tricyclo[14.3.0.0^4,6]nonadec-7-en-18-yl ester] reads less than 1000 nM.

As for `CC(C)(C)OC(=O)N[C@H]1CCCCC/C=C\[C@@H]2C[C@@]2(C(=O)NS(=O)(=O)N2CCCC2)NC(=O)C2C[C@@H](OC(=O)N3CCc4ccccc4C3CN3CCOCC3)CN2C1=O` (stereo partly drawn) [Compound 111, (1S,4R,6S,14S,18R)-1-Morpholine-4-ylmethyl-3,4-dihydro-1H-isoquinoline-2-carboxylic acid 14-tert-butoxycarbonylamino-2,15-dioxo-4-(pyrrolidine-1-sulfonylaminocarbonyl)-3,16-diaza-tricyclo[14.3.0.0^4,6]nonadec-7-en-18-yl ester], at NS3-NS4 protease, the IC50 is less than 100 nM.

As a reminder, the IC50 is the midpoint of a concentration-inhibition curve. For orientation: EC50 means the concentration needed to bring the measured effect to its halfway point.
